Results from patent publication US9085571B2, “Nonpeptide HIV-1 protease inhibitors” (Purdue Research Foundation, priority 2008, dated 2015).

Columns and labels:
HIV-1 protease = HIV-1 protease (Human immunodeficiency virus type 1 group M subtype B (isolate HXB2) (HIV-1), UniProt P04585); experiment: Inhibition of HIV proteases (inhibition constants, method of Toth and Marshall); type: biochemical
Description: Techniques for measurement of the ability of the compounds herein described to decrease the proteolytic activity of proteases encoded by HIV are well known to those skilled in the relevant art and any one or combination of such techniques can be used to measure the inhibition of protease activity of the compound herein described. One illustrative method is described by Toth and Marshall (Toth & Marshall, Int. J. Pep. Protein Res. (1990), 36, 544-550). The disclosure of the foregoing is incorporated herein in its entirety by reference. In addition, the entirety of the disclosures of each of the publications cited herein are also incorporated herein by reference.

HIV-1 = experiment: Inhibition of HIV-1 (IC50); type: cell-based, human immunodeficiency virus type 1; conditions: Human immunodeficiency virus 1

SMILES	Ki (HIV-1 protease) [nM]	IC50 (HIV-1) [nM]
COc1ccc(S(=O)(=O)N(CC(C)C)C[C@@H](O)[C@H](Cc2ccccc2)NC(=O)c2cccc(C(=O)N(C)Cc3oc(C)nc3C)c2)cc1	0.6	
COc1ccc(S(=O)(=O)N(CC(C)C)C[C@@H](O)[C@H](Cc2ccccc2)NC(=O)c2cccc(C(=O)N(C)Cc3nc(C)co3)c2)cc1	0.6	20
COc1ccc(S(=O)(=O)N(CC(C)C)C[C@@H](O)[C@H](Cc2ccccc2)NC(=O)c2cc(N)cc(C(=O)N(C)C3CCCCC3)c2)cc1	300	
CCCNC(=O)c1cc(N)cc(C(=O)N[C@@H](Cc2ccccc2)[C@H](O)CN(CC(C)C)S(=O)(=O)c2ccc(OC)cc2)c1	400	
Cc1nc(CNC(=O)c2cccc(C(=O)N[C@@H](Cc3ccccc3)[C@H](O)CN3C[C@H]4CCCC[C@H]4C[C@H]3C(=O)NC(C)(C)C)c2)c(C)o1	20	
COc1ccc(S(=O)(=O)N(CC(C)C)C[C@@H](O)[C@H](Cc2ccccc2)NC(=O)c2cc(C(=O)N(C)C3CCCCC3)cc(N(C)C(=O)OC(C)(C)C)c2)cc1	1000	
CCCN(C)C(=O)c1cc(C(=O)N[C@@H](Cc2ccccc2)[C@H](O)CN(CC(C)C)S(=O)(=O)c2ccc(OC)cc2)cc(N(C)C(=O)OC(C)(C)C)c1	1000	
CCCNC(=O)c1cc(NC)cc(C(=O)N[C@@H](Cc2ccccc2)[C@H](O)CN(CC(C)C)S(=O)(=O)c2ccc(OC)cc2)c1	300	
CNc1cc(C(=O)N[C@@H](Cc2ccccc2)[C@H](O)CN(CC(C)C)S(=O)(=O)c2ccc(OC)cc2)cc(C(=O)N(C)C2CCCCC2)c1	200	
CCCN(C)C(=O)c1cc(NC)cc(C(=O)N[C@@H](Cc2ccccc2)[C@H](O)CN(CC(C)C)S(=O)(=O)c2ccc(OC)cc2)c1	200	
COc1ccc(S(=O)(=O)N(CC(C)C)C[C@@H](O)[C@H](Cc2ccccc2)NC(=O)c2cc(OC)cc(C(=O)N(C)C3CCCCC3)c2)cc1	40	
CCCNC(=O)c1cc(OC)cc(C(=O)N[C@@H](Cc2ccccc2)[C@H](O)CN(CC(C)C)S(=O)(=O)c2ccc(OC)cc2)c1	50	
Cc1nc(CN(C)C(=O)c2cccc(C(=O)N[C@@H](Cc3ccccc3)[C@H](O)CN3C[C@H]4CCCC[C@H]4C[C@H]3C(=O)NC(C)(C)C)c2)c(C)o1	5	
CCCN(CCC)C(=O)c1cccc(C(=O)N[C@@H](Cc2ccccc2)[C@H](O)CN2C[C@H]3CCCC[C@H]3C[C@H]2C(=O)NC(C)(C)C)c1	100	
CCCN(CCC)C(=O)c1cccc(C(=O)N[C@@H](Cc2ccccc2)[C@H](O)CN(CC(C)C)S(=O)(=O)c2ccc(OC)cc2)c1	20	
CCCN(C)C(=O)c1cc(OC)cc(C(=O)N[C@@H](Cc2ccccc2)[C@H](O)CN(CC(C)C)S(=O)(=O)c2ccc(OC)cc2)c1	20	
COCc1coc(CN(C)C(=O)c2cccc(C(=O)N[C@@H](Cc3ccccc3)[C@H](O)CN(CC(C)C)S(=O)(=O)c3ccc(OC)cc3)c2)n1	0.3	
Cc1coc(CN(C)C(=O)c2cccc(C(=O)N[C@@H](Cc3ccccc3)[C@H](O)CN(CC(C)C)S(=O)(=O)c3ccc(CO)cc3)c2)n1	0.6	
COc1ccc(S(=O)(=O)N(CC(C)C)C[C@@H](O)[C@H](Cc2ccccc2)NC(=O)c2cc(C)cc(C(=O)N(C)Cc3nc(C)oc3C)c2)cc1	0.2	30
COc1ccc(S(=O)(=O)N(CC(C)C)C[C@@H](O)[C@H](Cc2ccccc2)NC(=O)c2cncc(C(=O)N(C)Cc3nc(C)oc3C)c2)cc1	6	
COc1ccc(S(=O)(=O)N(CC(C)C)C[C@@H](O)[C@H](Cc2ccccc2)NC(=O)c2cc(OC)cc(C(=O)N(C)Cc3nc(C)oc3C)c2)cc1	1	
CNc1cc(C(=O)N[C@@H](Cc2ccccc2)[C@H](O)CN(CC(C)C)S(=O)(=O)c2ccc(OC)cc2)cc(C(=O)N(C)Cc2nc(C)oc2C)c1	5	
COc1ccc(S(=O)(=O)N(CC(C)C)C[C@@H](O)[C@H](Cc2ccccc2)NC(=O)c2ccc(C(=O)N(C)Cc3nc(C)oc3C)cc2)cc1	70	
COc1ccc(S(=O)(=O)N(CC(C)C)C[C@@H](O)[C@H](Cc2ccccc2)NC(=O)c2cc(N)cc(C(=O)N(C)Cc3nc(C)oc3C)c2)cc1	100	
COc1ccc(S(=O)(=O)N(CC(C)C)C[C@@H](O)[C@H](Cc2ccccc2)NC(=O)c2cccc(C(=O)N(C)Cc3csc(C)n3)c2)cc1	0.1	
COc1ccc(S(=O)(=O)N(CC(C)C)C[C@@H](O)[C@H](Cc2ccccc2)NC(=O)c2ccccc2C(=O)N(C)Cc2nc(C)oc2C)cc1	600	
Cc1nc(CN(C)C(=O)c2cccc(C(=O)N[C@@H](Cc3ccccc3)[C@H](O)CN(CC(C)C)S(=O)(=O)c3ccc(N)cc3)c2)c(C)o1	2	
COc1ccc(S(=O)(=O)N(CC(C)C)C[C@@H](O)[C@H](Cc2ccccc2)NC(=O)c2cccc(C(=O)N3CCC[C@H]3c3nc(C)cs3)c2)cc1	30	
COc1ccc(S(=O)(=O)N(CC(C)C)C[C@@H](O)[C@H](Cc2ccccc2)NC(=O)c2cccc(C(=O)N3CCC[C@@H]3c3nc(C)cs3)c2)cc1	0.03 to 8	32
